Structures can show the parent of a compound that is named as a salt.
What follows are compounds tested on BT-20 (assay: Anti-proliferation assay (ATPLite), Chalice synergy score). Conditions: Compound 1 in combination with the named second active agent, 72 h, mean of n = 3 experiments in triplicate.
Assay type: cell-based
Design: scale not given here
Text: (§1) Cells were thawed from a liquid nitrogen preserved state.
(§2) The calculation for synergy score is provided below.
(§3) If T≧V0:100*[1−(T−V0)/(V−V0)]

Row | Compound | Synergy score
1 | CC[C@@H]1C(=O)N(C)c2cnc(Nc3ccc(C(=O)NC4CCN(C)CC4)cc3OC)nc2N1C1CCCC1 [BI 2536] | 5.18
2 | COc1cccc2c1C(=O)c1c(O)c3c(c(O)c1C2=O)C[C@@](O)(C(=O)CO)C[C@@H]3O[C@H]1C[C@H](N)[C@H](O)[C@H](C)O1 [Doxorubicin Hcl, Doxorubicin HCl] | 3.96
3 | O=C(Nc1cccc(Nc2ncc(Br)c(NCCc3c[nH]cn3)n2)c1)N1CCCC1 [BX-912] | 1.32
4 | Nc1ccn([C@@H]2O[C@H](CO)[C@@H](O)C2(F)F)c(=O)n1 [Gemcitabine Hydrochloride] | 1.85

These compounds were tested on HCC-1187 in the same assay as above. Conditions: Compound 1 in combination with the named second active agent, 72 h, mean of n = 3 experiments in triplicate.
Assay type: cell-based
Design: scale not given here
Text: as §1, §2, §3

Row | Compound | Synergy score
5 | CC[C@@H]1C(=O)N(C)c2cnc(Nc3ccc(C(=O)NC4CCN(C)CC4)cc3OC)nc2N1C1CCCC1 [BI 2536] | 3.28
6 | COc1cccc2c1C(=O)c1c(O)c3c(c(O)c1C2=O)C[C@@](O)(C(=O)CO)C[C@@H]3O[C@H]1C[C@H](N)[C@H](O)[C@H](C)O1 [Doxorubicin Hcl, Doxorubicin HCl] | 4.45
7 | O=C(Nc1cccc(Nc2ncc(Br)c(NCCc3c[nH]cn3)n2)c1)N1CCCC1 [BX-912] | 4.10
8 | Nc1ccn([C@@H]2O[C@H](CO)[C@@H](O)C2(F)F)c(=O)n1 [Gemcitabine Hydrochloride] | 1.83

The compounds below were run on HCC-1500 in the same assay as above. Conditions: Compound 1 in combination with the named second active agent, 72 h, mean of n = 3 experiments in triplicate.
Assay type: cell-based
Design: scale not given here
Text: as §1, §2, §3

Row | Compound | Synergy score
9 | CC[C@@H]1C(=O)N(C)c2cnc(Nc3ccc(C(=O)NC4CCN(C)CC4)cc3OC)nc2N1C1CCCC1 [BI 2536] | 4.47
10 | COc1cccc2c1C(=O)c1c(O)c3c(c(O)c1C2=O)C[C@@](O)(C(=O)CO)C[C@@H]3O[C@H]1C[C@H](N)[C@H](O)[C@H](C)O1 [Doxorubicin Hcl, Doxorubicin HCl] | 2.70
11 | O=C(Nc1cccc(Nc2ncc(Br)c(NCCc3c[nH]cn3)n2)c1)N1CCCC1 [BX-912] | 2.11
12 | Nc1ccn([C@@H]2O[C@H](CO)[C@@H](O)C2(F)F)c(=O)n1 [Gemcitabine Hydrochloride] | 3.72

The compounds below were run on BT-474 in the same assay as above. Conditions: Compound 1 in combination with the named second active agent, 72 h, mean of n = 3 experiments in triplicate.
Assay type: cell-based
Text: as §1, §2, §3

Row | Compound | Synergy score
13 | CC[C@@H]1C(=O)N(C)c2cnc(Nc3ccc(C(=O)NC4CCN(C)CC4)cc3OC)nc2N1C1CCCC1 [BI 2536] | 9.25
14 | COc1cccc2c1C(=O)c1c(O)c3c(c(O)c1C2=O)C[C@@](O)(C(=O)CO)C[C@@H]3O[C@H]1C[C@H](N)[C@H](O)[C@H](C)O1 [Doxorubicin Hcl, Doxorubicin HCl] | 1.25
15 | O=C(Nc1cccc(Nc2ncc(Br)c(NCCc3c[nH]cn3)n2)c1)N1CCCC1 [BX-912] | 0.87
16 | Nc1ccn([C@@H]2O[C@H](CO)[C@@H](O)C2(F)F)c(=O)n1 [Gemcitabine Hydrochloride] | 0.17

What follows are compounds tested on BT-549 in the same assay as above. Conditions: Compound 1 in combination with the named second active agent, 72 h, mean of n = 3 experiments in triplicate.
Assay type: cell-based
Text: as §1, §2, §3

Row | Compound | Synergy score
17 | CC[C@@H]1C(=O)N(C)c2cnc(Nc3ccc(C(=O)NC4CCN(C)CC4)cc3OC)nc2N1C1CCCC1 [BI 2536] | 6.91
18 | COc1cccc2c1C(=O)c1c(O)c3c(c(O)c1C2=O)C[C@@](O)(C(=O)CO)C[C@@H]3O[C@H]1C[C@H](N)[C@H](O)[C@H](C)O1 [Doxorubicin Hcl, Doxorubicin HCl] | 4.78
19 | O=C(Nc1cccc(Nc2ncc(Br)c(NCCc3c[nH]cn3)n2)c1)N1CCCC1 [BX-912] | 1.52
20 | Nc1ccn([C@@H]2O[C@H](CO)[C@@H](O)C2(F)F)c(=O)n1 [Gemcitabine Hydrochloride] | 1.86

These compounds were tested on HCC-1428 in the same assay as above. Conditions: Compound 1 in combination with the named second active agent, 72 h, mean of n = 3 experiments in triplicate.
Assay type: cell-based
Text: as §1, §2, §3

Row | Compound | Synergy score
21 | COc1cccc2c1C(=O)c1c(O)c3c(c(O)c1C2=O)C[C@@](O)(C(=O)CO)C[C@@H]3O[C@H]1C[C@H](N)[C@H](O)[C@H](C)O1 [Doxorubicin Hcl, Doxorubicin HCl] | 0.96
22 | O=C(Nc1cccc(Nc2ncc(Br)c(NCCc3c[nH]cn3)n2)c1)N1CCCC1 [BX-912] | 2.05

These compounds were tested on HCC-1806 in the same assay as above. Conditions: Compound 1 in combination with the named second active agent, 72 h, mean of n = 3 experiments in triplicate.
Assay type: cell-based
Text: as §1, §2, §3

Row | Compound | Synergy score
23 | CC[C@@H]1C(=O)N(C)c2cnc(Nc3ccc(C(=O)NC4CCN(C)CC4)cc3OC)nc2N1C1CCCC1 [BI 2536] | 0.43
24 | COc1cccc2c1C(=O)c1c(O)c3c(c(O)c1C2=O)C[C@@](O)(C(=O)CO)C[C@@H]3O[C@H]1C[C@H](N)[C@H](O)[C@H](C)O1 [Doxorubicin Hcl, Doxorubicin HCl] | 3.55
25 | O=C(Nc1cccc(Nc2ncc(Br)c(NCCc3c[nH]cn3)n2)c1)N1CCCC1 [BX-912] | 0.57
26 | Nc1ccn([C@@H]2O[C@H](CO)[C@@H](O)C2(F)F)c(=O)n1 [Gemcitabine Hydrochloride] | 0.84

These compounds were tested on HCC-1937 in the same assay as above. Conditions: Compound 1 in combination with the named second active agent, 72 h, mean of n = 3 experiments in triplicate.
Assay type: cell-based
Text: as §1, §2, §3

Row | Compound | Synergy score
27 | CC[C@@H]1C(=O)N(C)c2cnc(Nc3ccc(C(=O)NC4CCN(C)CC4)cc3OC)nc2N1C1CCCC1 [BI 2536] | 16.20
28 | COc1cccc2c1C(=O)c1c(O)c3c(c(O)c1C2=O)C[C@@](O)(C(=O)CO)C[C@@H]3O[C@H]1C[C@H](N)[C@H](O)[C@H](C)O1 [Doxorubicin Hcl, Doxorubicin HCl] | 6.92
29 | O=C(Nc1cccc(Nc2ncc(Br)c(NCCc3c[nH]cn3)n2)c1)N1CCCC1 [BX-912] | 0.44
30 | Nc1ccn([C@@H]2O[C@H](CO)[C@@H](O)C2(F)F)c(=O)n1 [Gemcitabine Hydrochloride] | 3.78

What follows are compounds tested on HCC70 in the same assay as above. Conditions: Compound 1 in combination with second active agent; HCC-70; mean self-cross + 2σ threshold 3.45.
Assay type: cell-based
Text: as §1, §2, §3

Row | Compound | Synergy score
31 | CC[C@@H]1C(=O)N(C)c2cnc(Nc3ccc(C(=O)NC4CCN(C)CC4)cc3OC)nc2N1C1CCCC1 [BI 2536] | 12.60
32 | COc1cccc2c1C(=O)c1c(O)c3c(c(O)c1C2=O)C[C@@](O)(C(=O)CO)C[C@@H]3O[C@H]1C[C@H](N)[C@H](O)[C@H](C)O1 [Doxorubicin Hcl, Doxorubicin HCl] | 4.00
33 | O=C(Nc1cccc(Nc2ncc(Br)c(NCCc3c[nH]cn3)n2)c1)N1CCCC1 [BX-912] | 6.05

What follows are compounds tested on Hs-578-T in the same assay as above. Conditions: Compound 1 in combination with second active agent, mean self-cross + 2σ threshold 4.09.
Assay type: cell-based
Text: as §1, §2, §3

Row | Compound | Synergy score
34 | CC[C@@H]1C(=O)N(C)c2cnc(Nc3ccc(C(=O)NC4CCN(C)CC4)cc3OC)nc2N1C1CCCC1 [BI 2536] | 4.48
35 | COc1cccc2c1C(=O)c1c(O)c3c(c(O)c1C2=O)C[C@@](O)(C(=O)CO)C[C@@H]3O[C@H]1C[C@H](N)[C@H](O)[C@H](C)O1 [Doxorubicin Hcl, Doxorubicin HCl] | 5.85
36 | O=C(Nc1cccc(Nc2ncc(Br)c(NCCc3c[nH]cn3)n2)c1)N1CCCC1 [BX-912] | 6.07
37 | Nc1ccn([C@@H]2O[C@H](CO)[C@@H](O)C2(F)F)c(=O)n1 [Gemcitabine Hydrochloride] | 0.96

These compounds were tested on MCF7 in the same assay as above. Conditions: Compound 1 in combination with second active agent, mean self-cross + 2σ threshold 3.07.
Assay type: cell-based
Text: as §1, §2, §3

Row | Compound | Synergy score
38 | CC[C@@H]1C(=O)N(C)c2cnc(Nc3ccc(C(=O)NC4CCN(C)CC4)cc3OC)nc2N1C1CCCC1 [BI 2536] | 3.30
39 | O=C(Nc1cccc(Nc2ncc(Br)c(NCCc3c[nH]cn3)n2)c1)N1CCCC1 [BX-912] | 0.69
40 | Nc1ccn([C@@H]2O[C@H](CO)[C@@H](O)C2(F)F)c(=O)n1 [Gemcitabine Hydrochloride] | 0.38

What follows are compounds tested on MDA-MB-157 in the same assay as above. Conditions: Compound 1 in combination with second active agent, mean self-cross + 2σ threshold 4.68.
Assay type: cell-based
Text: as §1, §2, §3

Row | Compound | Synergy score
41 | CC[C@@H]1C(=O)N(C)c2cnc(Nc3ccc(C(=O)NC4CCN(C)CC4)cc3OC)nc2N1C1CCCC1 [BI 2536] | 5.08
42 | COc1cccc2c1C(=O)c1c(O)c3c(c(O)c1C2=O)C[C@@](O)(C(=O)CO)C[C@@H]3O[C@H]1C[C@H](N)[C@H](O)[C@H](C)O1 [Doxorubicin Hcl, Doxorubicin HCl] | 8.50
43 | O=C(Nc1cccc(Nc2ncc(Br)c(NCCc3c[nH]cn3)n2)c1)N1CCCC1 [BX-912] | 6.65
44 | Nc1ccn([C@@H]2O[C@H](CO)[C@@H](O)C2(F)F)c(=O)n1 [Gemcitabine Hydrochloride] | 2.53

These compounds were tested on MDA-MB-231 in the same assay as above. Conditions: Compound 1 in combination with second active agent, mean self-cross + 2σ threshold 2.61.
Assay type: cell-based
Text: as §1, §2, §3

Row | Compound | Synergy score
45 | CC[C@@H]1C(=O)N(C)c2cnc(Nc3ccc(C(=O)NC4CCN(C)CC4)cc3OC)nc2N1C1CCCC1 [BI 2536] | 2.92
46 | Nc1ccn([C@@H]2O[C@H](CO)[C@@H](O)C2(F)F)c(=O)n1 [Gemcitabine Hydrochloride] | 2.51

What follows are compounds tested on MDA-MB-436 in the same assay as above. Conditions: Compound 1 in combination with second active agent, mean self-cross + 2σ threshold 1.91.
Assay type: cell-based
Text: as §1, §2, §3

Row | Compound | Synergy score
47 | CC[C@@H]1C(=O)N(C)c2cnc(Nc3ccc(C(=O)NC4CCN(C)CC4)cc3OC)nc2N1C1CCCC1 [BI 2536] | 2.95
48 | COc1cccc2c1C(=O)c1c(O)c3c(c(O)c1C2=O)C[C@@](O)(C(=O)CO)C[C@@H]3O[C@H]1C[C@H](N)[C@H](O)[C@H](C)O1 [Doxorubicin Hcl, Doxorubicin HCl] | 3.89
49 | O=C(Nc1cccc(Nc2ncc(Br)c(NCCc3c[nH]cn3)n2)c1)N1CCCC1 [BX-912] | 2.50
50 | Nc1ccn([C@@H]2O[C@H](CO)[C@@H](O)C2(F)F)c(=O)n1 [Gemcitabine Hydrochloride] | 3.05

These compounds were tested on MDA-MB-468 in the same assay as above. Conditions: Compound 1 in combination with second active agent, mean self-cross + 2σ threshold 4.66.
Assay type: cell-based
Text: as §1, §2, §3

Row | Compound | Synergy score
51 | CC[C@@H]1C(=O)N(C)c2cnc(Nc3ccc(C(=O)NC4CCN(C)CC4)cc3OC)nc2N1C1CCCC1 [BI 2536] | 9.61
52 | COc1cccc2c1C(=O)c1c(O)c3c(c(O)c1C2=O)C[C@@](O)(C(=O)CO)C[C@@H]3O[C@H]1C[C@H](N)[C@H](O)[C@H](C)O1 [Doxorubicin Hcl, Doxorubicin HCl] | 6.36
53 | O=C(Nc1cccc(Nc2ncc(Br)c(NCCc3c[nH]cn3)n2)c1)N1CCCC1 [BX-912] | 8.29
54 | Nc1ccn([C@@H]2O[C@H](CO)[C@@H](O)C2(F)F)c(=O)n1 [Gemcitabine Hydrochloride] | 5.52

Reference: patent publication US9737535B2, “Methods for treating cancer using TOR kinase inhibitor combination therapy comprising administering substituted pyrazino[2,3-b]pyrazines” (Signal Pharmaceuticals, LLC, priority 2014, dated 2017)
